Source: US9296693B2, “Acyl piperidine inhibitors of soluble epoxide hydrolase” (The Regents of the University of California, priority 2010, dated 2016)
Where “and” joins values, the source holds several entries; their conditions need not be identical. Identical values can stand only once. Like-named read-outs stand apart in the source and are kept apart here.

Legend:
[1] = target: murine sEH (Mus musculus (Mouse), UniProt P34914); assay: fluorescent based IC50 assay (CMNPC substrate), recombinant murine sEH; type: biochemical; details: homogenous recombinant murine sEH 1 nM, CMNPC 5 μM, pH 7.0, 30° C., average of three replicates
[2] = target: Human sEH (Homo sapiens (Human), UniProt P34913); assay: fluorescent based IC50 assay (CMNPC substrate), recombinant human sEH;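 note: enzyme preincubated with inhibitor for 5 min before adding substrate, in 25 mM Bis-Tris/HCl buffer supplemented with 0.1 mg/mL BSA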
[3] = Pharmacokinetic screening of selected haloalkyl-phenyl ureas, blood profiles; type: in vivo; details: whole blood
[4] = read-out: IC50 (nM) Human, homogenous recombinant human sEH 1 nM, CMNPC 5 μM, pH 7.0, 30° C., average of three replicates

murine sEH, sequence (P34914 whole entry): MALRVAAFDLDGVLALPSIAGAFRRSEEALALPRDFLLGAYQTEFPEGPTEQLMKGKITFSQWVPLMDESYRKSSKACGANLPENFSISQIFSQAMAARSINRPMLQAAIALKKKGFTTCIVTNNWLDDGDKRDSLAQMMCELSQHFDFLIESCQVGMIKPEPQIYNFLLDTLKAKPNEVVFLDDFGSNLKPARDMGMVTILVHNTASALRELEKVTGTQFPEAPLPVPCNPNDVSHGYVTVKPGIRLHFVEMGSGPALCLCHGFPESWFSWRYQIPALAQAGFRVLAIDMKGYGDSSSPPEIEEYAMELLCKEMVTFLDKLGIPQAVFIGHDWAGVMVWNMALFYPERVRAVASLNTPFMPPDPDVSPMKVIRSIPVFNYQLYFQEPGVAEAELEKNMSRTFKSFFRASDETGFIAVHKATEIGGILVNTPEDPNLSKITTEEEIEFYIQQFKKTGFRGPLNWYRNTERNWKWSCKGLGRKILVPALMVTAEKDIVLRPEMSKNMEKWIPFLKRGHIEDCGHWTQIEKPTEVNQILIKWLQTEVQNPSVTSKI
Human sEH, sequence (P34913 whole entry): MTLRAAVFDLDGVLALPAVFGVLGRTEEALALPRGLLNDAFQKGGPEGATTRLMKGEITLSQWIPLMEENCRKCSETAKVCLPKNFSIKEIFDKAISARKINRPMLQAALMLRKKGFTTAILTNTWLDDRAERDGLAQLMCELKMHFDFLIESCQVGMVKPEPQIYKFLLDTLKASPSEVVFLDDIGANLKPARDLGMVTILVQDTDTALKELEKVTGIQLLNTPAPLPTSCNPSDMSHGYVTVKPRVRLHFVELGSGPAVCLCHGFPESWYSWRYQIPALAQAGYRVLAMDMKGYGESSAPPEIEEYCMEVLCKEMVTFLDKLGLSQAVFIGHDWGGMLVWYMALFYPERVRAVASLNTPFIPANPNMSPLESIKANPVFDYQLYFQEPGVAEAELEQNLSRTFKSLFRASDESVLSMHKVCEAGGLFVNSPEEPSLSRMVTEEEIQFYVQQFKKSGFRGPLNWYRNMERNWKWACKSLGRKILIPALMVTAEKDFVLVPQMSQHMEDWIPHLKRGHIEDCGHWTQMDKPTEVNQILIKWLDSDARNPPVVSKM

Compound	IC50 [1]	IC50 [2, 4]	further results
CCC(=O)N1CCC(NC(=O)NC23CC4CC(CC(C4)C2)C3)CC1 [Compound 2, 1-(1-Adamantyl)-3-(1-propionylpiperidin-4-yl)urea]	1.2 nM	2.8 nM	
CCC(=O)N1CCC(NC(=O)NC2CCCCCC2)CC1 [Compound 3, 1-Cycloheptyl-3-(1-propionylpiperidin-4-yl)urea]	0.9 nM	3.9 nM	
CCC(=O)N1CCC(NC(=O)NC2CCCCC2)CC1 [Compound 4, 1-Cyclohexyl-3-(1-propionylpiperidin-4-yl)urea]	3.5 nM	12 nM	
CCCCCCCCNC(=O)NC1CCN(C(=O)CC)CC1 [Compound 5, 1-Octyl-3-(1-propionylpiperidin-4-yl)urea]	0.4 nM	3.2 nM	
CCC(=O)N1CCC(NC(=O)Nc2ccccc2)CC1 [Compound 7, 1-Phenyl-3-(1-propionylpiperidin-4-yl)urea]	49 nM	130 nM	
CCC(=O)N1CCC(NC(=O)Nc2ccc3ccccc3c2)CC1 [Compound 8, 1-(Naphthalen-2-yl)-3-(1-propionylpiperidin-4-yl)urea]	4.2 nM	3 nM	
CCC(=O)N1CCC(NC(=O)Nc2ccccc2C)CC1 [Compound 10, 1-(1-Propionylpiperidin-4-yl)-3-o-tolylurea]	> 5000 nM and 5100 nM	1700 nM	
CCC(=O)N1CCC(NC(=O)Nc2cccc(C)c2)CC1 [Compound 11]	8.7 nM	40 nM	
CCC(=O)N1CCC(NC(=O)Nc2ccc(CC)cc2)CC1 [Compound 13, 1-(4-Ethylphenyl)-3-(1-propionylpiperidin-4-yl)urea]	1.3 nM	8.3 nM	
CCC(=O)N1CCC(NC(=O)Nc2ccc(C(C)C)cc2)CC1 [Compound 14, 1-(4-Isopropylphenyl)-3-(1-propionylpiperidin-4-yl)urea]	3.3 nM	2.8 nM	
CCC(=O)N1CCC(NC(=O)Nc2ccc(OC)cc2)CC1 [Compound 15, 1-(4-Methoxyphenyl)-3-(1-propionylpiperidin-4-yl)urea]	8.7 nM	87 nM	
CCC(=O)N1CCC(NC(=O)Nc2ccc(Oc3ccccc3)cc2)CC1 [Compound 16, 1-(4-Phenoxyphenyl)-3-(1-propionylpiperidin-4-yl)urea]	0.4 nM	3.5 nM	
CCC(=O)N1CCC(NC(=O)Nc2cc(OC)c(OC)c(OC)c2)CC1 [Compound 18, 1-(1-Propionylpiperidin-4-yl)-3-(3,4,5-trimethoxyphenyl)urea]	> 5000 nM and 25000 nM	> 5000 nM	
CCC(=O)N1CCC(NC(=O)Nc2ccc(N3CCOCC3)cc2)CC1 [Compound 19, 1-(4-Morpholinophenyl)-3-(1-propionylpiperidin-4-yl)urea]	650 nM	2000 nM	
CCC(=O)N1CCC(NC(=O)Nc2ccc([N+](=O)[O-])cc2)CC1 [Compound 20, 1-(4-Nitrophenyl)-3-(1-propionylpiperidin-4-yl)urea]	97 nM		
CCC(=O)N1CCC(NC(=O)Nc2ccc(C(=O)O)cc2)CC1 [Compound 22, 4-(3-(1-Propionylpiperidin-4-yl)ureido)benzoic acid]	1000 nM	330 nM	
CCC(=O)N1CCC(NC(=O)Nc2ccc(O)cc2)CC1 [Compound 23, 1-(4-Hydroxyphenyl)-3-(1-propionylpiperidin-4-yl)urea]	1400 nM		
CCC(=O)N1CCC(NC(=O)Nc2ccc(Cl)cc2)CC1 [Compound 25, 1-(4-Chlorophenyl)-3-(1-propionylpiperidin-4-yl)urea]	23 nM	10 nM	
CCC(=O)N1CCC(NC(=O)Nc2ccc(Br)cc2)CC1 [Compound 26, 1-(4-Bromophenyl)-3-(1-propionylpiperidin-4-yl)urea]	15 nM	3.6 nM	
CCC(=O)N1CCC(NC(=O)Nc2ccc(I)cc2)CC1 [Compound 27, 1-(4-Iodophenyl)-3-(1-propionylpiperidin-4-yl)urea]	1.4 nM	7.2 nM	
CCC(=O)N1CCC(NC(=O)Nc2cccc(F)c2)CC1 [Compound 28, 1-(3-Fluorophenyl)-3-(1-propionylpiperidin-4-yl)urea]	20 nM	39 nM	
CCC(=O)N1CCC(NC(=O)Nc2ccccc2F)CC1 [Compound 29, 1-(2-Fluorophenyl)-3-(1-propionylpiperidin-4-yl)urea]	780 nM	300 nM	

Compound	IC50 [1]	IC50 [2, 4]	further results
CCC(=O)N1CCC(NC(=O)Nc2cccc(Cl)c2)CC1 [Compound 30, 1-(3-Chlorophenyl)-3-(1-propionylpiperidin-4-yl)urea]	6.6 nM	21 nM	
CCC(=O)N1CCC(NC(=O)Nc2ccccc2Cl)CC1 [Compound 31, 1-(2-Chlorophenyl)-3-(1-propionylpiperidin-4-yl)urea]	2900 nM	1100 nM	
CCC(=O)N1CCC(NC(=O)Nc2ccc(Cl)c(Cl)c2)CC1 [Compound 32, 1-(3,4-Dichlorophenyl)-3-(1-propionylpiperidin-4-yl)urea]	0.6 nM	3.4 nM	
CCC(=O)N1CCC(NC(=O)Nc2cc(Cl)cc(Cl)c2)CC1 [Compound 33, 1-(3,5-Dichlorophenyl)-3-(1-propionylpiperidin-4-yl)urea]	1 nM	0.4 nM	
CCC(=O)N1CCC(NC(=O)Nc2c(Cl)cccc2Cl)CC1 [Compound 34, 1-(2,6-Dichlorophenyl)-3-(1-propionylpiperidin-4-yl)urea]	> 5000 nM and 38000 nM	> 50000 nM	IC50 [2]: > 5000 nM
CCC(=O)N1CCC(NC(=O)Nc2ccc(Cl)c(C(F)(F)F)c2)CC1 [Compound 35, 1-(4-Chloro-3-(trifluoromethyl)phenyl)-3-(1-propionylpiperidin-4-yl)urea]	2.3 nM	4.1 nM	
CCC(=O)N1CCC(NC(=O)Nc2ccc(C(F)(F)F)cc2)CC1 [Compound 36, 1-(1-Propionylpiperidin-4-yl)-3-(4-(trifluoromethyl)phenyl)urea]	6.5 nM		
CCC(=O)N1CCC(NC(=O)Nc2cccc(C(F)(F)F)c2)CC1 [Compound 37, 1-(1-Propionylpiperidin-4-yl)-3-(3-(trifluoromethyl)phenyl)urea]	8.8 nM	17 nM	
CCC(=O)N1CCC(NC(=O)Nc2ccc(C(F)(C(F)(F)F)C(F)(F)F)cc2)CC1 [Compound 38, 1-(4-Perfluoroisopropylphenyl)-3-(1-propionylpiperidin-4-yl)urea]	0.7 nM	0.4 nM	
CCC(=O)N1CCC(NC(=O)Nc2ccc(C(F)(C(F)(F)F)C(F)(F)F)cc2C)CC1 [Compound 39, 1-(2-Methyl-4-perfluoroisopropylphenyl)-3-(1-propionylpiperidin-4-yl)urea]	28 nM	17 nM	
O=C(Nc1ccc(OC(F)(F)F)cc1)NC1CCN(C(=O)c2ccncc2)CC1 [Compound 47, 1-(1-Isonicotinoylpiperidin-4-yl)-3-(4-(trifluoromethoxy)phenyl)urea]	1.3 nM	0.7 nM	
O=C(Nc1ccc(OC(F)(F)F)cc1)NC1CCN(C(=O)c2ccc(Cl)nc2)CC1 [Compound 48, 1-(1-(6-Chloronicotinoyl)piperidin-4-yl)-3-(4-(trifluoromethoxy)phenyl) urea]	0.7 nM	0.6 nM	
O=C(Nc1ccc(OC(F)(F)F)cc1)NC1CCN(C(=O)Cc2ccccn2)CC1 [Compound 49, 1-(((Pyridin-2-yl)acetyl)piperidin-4-yl)-3-(4-(trifluoromethoxy)phenyl) urea]	5 nM	3.1 nM	
CC(=O)N1CCN(CC(=O)N2CCC(NC(=O)Nc3ccc(OC(F)(F)F)cc3)CC2)CC1 [Compound 51, 1-(1-((4-Acetylpiperazin-1-yl)acetyl)piperidin-4-yl)-3-(4-(trifluoromethoxy)phenyl)urea]	1.2 nM	0.5 nM	
O=C(Nc1ccc(OC(F)(F)F)cc1)NC1CCN(C(=O)C2CC2)CC1 [Compound 52, 1-(1-(Cyclopropanecarbonyl)piperidin-4-yl)-3-(4-(trifluoromethoxy)phenyl) urea]	0.4 nM		
O=C(Nc1ccc(OC(F)(F)F)cc1)NC1CCN(C(=O)C(F)(F)F)CC1 [Compound 53, 1-(1-(Trifluoroacetyl)piperidin-4-yl)-3-(4-(trifluoromethoxy)phenyl) urea]	0.4 nM		
CS(=O)(=O)N1CCC(NC(=O)Nc2ccc(OC(F)(F)F)cc2)CC1 [Compound 55, 1-(1-(Methylsulfonyl)piperidin-4-yl)-3-(4-(trifluoromethoxy)phenyl)urea]	2 nM	2.9 nM	
CCS(=O)(=O)N1CCC(NC(=O)Nc2ccc(OC(F)(F)F)cc2)CC1 [Compound 56, 1-(1-(Ethylsulfonyl)piperidin-4-yl)-3-(4-(trifluoromethoxy)phenyl)urea]	0.7 nM	0.4 nM	
O=C(Nc1ccc(OC(F)(F)F)cc1)NC1CCN(S(=O)(=O)c2ccccc2)CC1 [Compound 57, 1-(1-(Phenylsulfonyl)piperidin-4-yl)-3-(4-(trifluoromethoxy)phenyl)urea]	0.4 nM	1.8 nM	
Cc1ccc(S(=O)(=O)N2CCC(NC(=O)Nc3ccc(OC(F)(F)F)cc3)CC2)cc1 [Compound 58, 1-(1-Tosylpiperidin-4-yl)-3-(4-(trifluoromethoxy)phenyl)urea]	0.4 nM		
O=C(Nc1ccc(C(F)(F)F)cc1)NC1CCN(C(=O)C2CC2)CC1 [Compound 61, 1-(1-cyclopropanecarbonylpiperidin-4-yl)-3-(4-(trifluoromethyl)phenyl)urea]			AUC [3]: 170 µM·h; Cmax [3]: 10.2 µM; Tmax [3]: 4 h; half-life [3]: 10.6 h
CCC(C)C(=O)N1CCC(NC(=O)Nc2ccc(C(F)(F)F)cc2)CC1 (stereo not drawn) [Compound 64, 1-(1-(2-methylbutyryl)piperidin-4-yl)-3-(4-(trifluoromethyl)phenyl)urea]			AUC [3]: 3.9 µM·h; Cmax [3]: 4 µM; Tmax [3]: 4 h; half-life [3]: 2.5 h
